Data as given in patent US9073858B2, “Methods of targeted drug development” (priority 2010, dated 2015).
pIC50: −log10 of the molar value. Where two headings read alike, the source gives them in different places.

Key:
MDBK line = assay: MTT Cell Proliferation Assay, MDBK line; type: cell-based, bovine; details: 72 h, second value of A431/MDBK pair, read-out: MTT-72 h MDBK
Text: (§1) The following example describes the MTT Cell Proliferation Assay.
(§2) The MTT Cell Proliferation Assay is a colorimetric assay system that measures the reduction of the tetrazolium salt MTT (3-(4,5-dimethylthiazol-2-yl)-2,5-diphenyltetrazolium bromide) into insoluble formazan crystals, produced by the mitochondria of viable cells. […] The color can then be quantified by spectrophotometric means. Among the applications for the method are drug sensitivity, cytotoxicity, response to growth factors, and cell activation. The reduction of tetrazolium salts is now recognized as a safe, accurate alternative to radiometric testing.
(§3) Two replicates on each cell plate and 2 duplicate plates gave 4 individual replicates of each concentration, in each cell line. Concentrations were diluted in 100% DMSO from 25 mM stocks.
(§4) Twelve 96 well plates of each cell line were plated. Plating was done by dislodging cells as in passage protocol, counting on a hemocytometer, re-suspending in standard growth media, and plating using a multichannel pippetor.
(§5) 16 μl of 25 mM stock+34 μl DMSO=8 mM starting concentrations, and serial diluted as with test compounds in same plate. […] Two replicates of each concentrations was run on each cell plate. All compound addition and cell treatments were done using aseptic technique under a laminar flow aseptic hood.
(§6) Control: 0.5% DMSO in treatment media was used as the control.
(§7) MTT dye (Thiazolyl Blue Tetrazolium Bromide, Sigma cat # M5655) stock was prepared in bulk and stored at 4° C. for use: 5 mgs/ml sterile PDS, shielded from light. 4 ul of this stock per 100 uls treatment media per well was used.
(§8) Plates were incubated overnight prior to treatment, with treatment day=Day 0. Compound treatments were prepared prior to washing cells to minimize time cells were dry at room temperature after final aspiration. Compounds were diluted in 100% DMSO in 96 well polypropylene plates:40 μl 25 mM stock+10 μl DMSO=20 mM; 20 μl of 20 mM+30 μl DMSO=8 mM; 20 μl of 8 mM+30 μl DMSO=3.2 mM; 20 μl of 3.2 mM+30 μl DMSO=1.3 mM; 20 μl of 1.3 mM+30 μl DMSO=0.51 mM.
(§9) 5.0 μl/ml were added to treatment media, in sterile, 2.2 ml deep well plates=0.5% dmso final. Ten μl of each dmso concentration was added to 2.0 ml of treatment media and then mixed using a 1200 μl multichannel pipettor. Cell plates were treated from the deep well plates. Treatment media was standard growth media containing 0.5% FBS and standard additions. This reduced FBS concentration allowed for a slower growth rate in cells.
(§10) Media was aspirated from cell plates, and washed with 200 μl/well sterile PBS. Aspirated PBS wash, and cell plates were treated with 200 μl of compound/treatment media per well, and incubated at 37° C., 5% CO2 for 3 days.
(§11) Prior to harvesting, visual observations were made under an inverted microscope. Plates were harvested by: aspirating the growth media; adding back MTT dye/100 μl treatment media; and incubating plates at 37° C. for 1 hour. MTT dye was aspirated. 100 μl/well dmso was added, and then shaken on a Bellco plate shaker for 5 minutes, at 4.5 setting.
(§12) Plates were read in a Tecan Sunrize UV plate reader, at 560 nm. Settings: Read mode, Outside Normal 2 sec; Shake settle time 3 sec. Data is reported as % inhibition, calculated for individual plates using control values from that plate.

EGFR = target: T1, EGFR (Homo sapiens, UniProt P00533); assay: EGFR in-cell Western (ICW) screening protocol; type: cell-based; parameters: unit not given here; details: for ICW Screen: initial screen
T1 construct: endogenous in cells; host or cells: A431 cells (ATCC CRL-1555)
T1 sequence (P00533 25-1210): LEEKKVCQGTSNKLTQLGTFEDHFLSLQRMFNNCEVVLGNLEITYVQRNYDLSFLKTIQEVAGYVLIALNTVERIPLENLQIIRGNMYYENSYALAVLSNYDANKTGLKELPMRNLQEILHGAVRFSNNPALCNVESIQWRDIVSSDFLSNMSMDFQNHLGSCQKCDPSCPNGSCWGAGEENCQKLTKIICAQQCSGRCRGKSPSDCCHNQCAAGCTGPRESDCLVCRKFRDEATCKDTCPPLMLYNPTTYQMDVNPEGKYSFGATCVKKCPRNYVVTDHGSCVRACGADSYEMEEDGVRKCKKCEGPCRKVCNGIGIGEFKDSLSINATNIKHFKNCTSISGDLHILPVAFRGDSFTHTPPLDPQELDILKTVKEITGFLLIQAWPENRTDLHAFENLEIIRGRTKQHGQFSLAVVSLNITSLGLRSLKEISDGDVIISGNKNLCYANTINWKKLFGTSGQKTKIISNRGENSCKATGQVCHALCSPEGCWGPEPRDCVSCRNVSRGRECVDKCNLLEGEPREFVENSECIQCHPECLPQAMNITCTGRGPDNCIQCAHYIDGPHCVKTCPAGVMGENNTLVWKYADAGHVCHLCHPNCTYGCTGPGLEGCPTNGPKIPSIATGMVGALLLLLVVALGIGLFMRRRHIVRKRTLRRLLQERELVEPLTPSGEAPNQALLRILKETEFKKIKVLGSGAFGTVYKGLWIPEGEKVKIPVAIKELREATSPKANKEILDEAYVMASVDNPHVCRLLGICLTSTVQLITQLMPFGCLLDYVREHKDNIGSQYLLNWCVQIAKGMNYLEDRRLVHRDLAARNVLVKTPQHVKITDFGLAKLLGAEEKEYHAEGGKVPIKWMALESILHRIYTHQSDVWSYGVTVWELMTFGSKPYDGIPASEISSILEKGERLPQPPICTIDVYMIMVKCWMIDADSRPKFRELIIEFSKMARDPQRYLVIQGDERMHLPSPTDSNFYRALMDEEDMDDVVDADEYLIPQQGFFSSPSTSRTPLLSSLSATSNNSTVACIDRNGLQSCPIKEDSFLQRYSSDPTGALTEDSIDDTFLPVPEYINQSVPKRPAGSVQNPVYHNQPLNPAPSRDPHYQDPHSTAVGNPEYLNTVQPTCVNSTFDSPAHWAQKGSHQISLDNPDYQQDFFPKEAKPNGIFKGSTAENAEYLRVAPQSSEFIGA
Protocol: The following example describes general EGFR in-cell Western (ICW) screening protocol.
Two cell plates were prepared for each compound plate.
Serum Starvation: The cells were serum starved prior to compound addition. […] The cell plates were incubated at 37° C./5% CO2 for 2 hours.
Prepared compound plates were stored at RT prior to use and at 4° C. long term.
Compound Dilution Plate Preparation: 250 μl of DMEM supplemented with 1 mg/ml BSA (Sigma A3059-10G) was added to the appropriate wells of a 96 well plate to prepare the compound dilution plates. Using a multichannel pipettor, 1.25 μl of compound from the compound plate was transferred into the compound dilution plate.
Compound Addition: The starve media was removed from the cell plates by aspiration. Using a multichannel pipettor, the compound dilution plates were mixed by pipetting up and down three times. 50 μl of mixed, diluted compound was added to each of two rows/columns on each of two cell plates. The cell plates with compound were incubated at 37° C./5% CO2 for 4 hours.
50 μl of 20 or 0 ng/ml EGF was added to the appropriate wells without the removal of compound. The compound and EGF were mixed by pipetting up and down three times.
The plates were incubated at RT for 20 min without shaking. The Fixation Solution was removed by aspiration and the plates washed four times with 200 μl each of Triton Wash Solution (1×PBS, Sigma P3813-10PK, and 0.1% Triton X-100, T8787-50ML) for 5 min with gentle shaking.
The block was removed by aspiration and 50 μl of diluted primary Ab mix was added. The plates were incubated at 4° C. overnight with gentle shaking. The plates were washed five times with 200 μl of PBST (1×PBS, Sigma P3813-10PK, and 0.1% Tween-20, Sigma P9416-50ML) for 5 min each with shaking. 50 μl of diluted secondary Ab mix was added and the plates incubated at RT for 1 h with shaking. The plates were washed 5× with 200 μl of PBST for 5 min each with shaking. One final wash with 200 μl of PBS (Sigma P3813-10PK) for 5 min with shaking was performed prior to scanning.
In some screening assays, the dilution of the secondary Ab conjugates was 1/800 rather than 1/1200.
Plate Scanning: The plates were scanned on an Odyssey Infrared Imaging System from LI-COR Biosciences. The focus offset was set at 3.5 mm and the scanning intensity set at 3 for the 700 channel and 7 for the 800 channel.
Data Analysis: The % of Maximum and % Inhibition values were calculated as follows. 700 Channel=signal for total EGFR (used to control for variation in cell number). 800 Channel=signal for phosphorylated EGFR. 800−EGF=basal level EGFR phosporylation+non-specific signal (no compound). 800+EGF=800−EGF+EGF dependent EGFR receptor phosphorylation (no compound). 700/800com=700 or 800 channel signals with compound. % Maximum={[(800com/700com)−(800−EGF/700−EGF)]/[(800+EGF/700+EGF)−(800−EGF/700−EGF)]}×100%. % Inhibition=100%−(% Maximum).

[1] = system: epithelial carcinoma A431 cell line; assay: MTT Cell Proliferation Assay, A431 cell line; type: cell-based; details: 72 h; for pIC50: first value of A431/MDBK pair, read-out: MTT-72 h A431; for MTT-72 h A431/MDBK (ratio): value in brackets, numerically MDBK value over A431 value
Text: as §1, §2, §3, §4, §5, §6, §7, §8, §9, §10, §11, §12

Row | SMILES | pIC50 (MDBK line) | ICW Screen (EGFR) | ICW Re-Test (EGFR) | pIC50 [1] | MTT-72 h A431/MDBK (ratio) [1] | pIC50 (MDBK line; Bos taurus, MDBK) | pIC50 ([1]; Homo sapiens, A-431, 72 h)
1 | CCOc1ccc(NC(c2ccccn2)c2ccc3cccnc3c2O)cc1 (stereo not shown) [compound 1073] | 5.13 | 54.34 | 38.77 | 5.32 | 1.53 | – | –
2 | CCOc1cc(C(Nc2ccccn2)c2ccc3cccnc3c2O)ccc1OC (stereo not shown) [compound 1968] | – | 46.48 | 20.95 | – | 0.86 | 5.21 | 5.15
3 | COc1ccc(C(Nc2cc(C)ccn2)c2ccc3cccnc3c2O)cc1OC (stereo not shown) [compound 1969] | – | 29.61 | 39.58 | – | 0.90 | 4.87 | 4.82
4 | Cc1ccc2ccc(C(Nc3ccccn3)c3cccc(O)c3)c(O)c2n1 (stereo not shown) [compound 1970] | – | 26.33 | – | – | 0.81 | 4.49 | 4.40
5 | COc1cc(C(Nc2cc(C)ccn2)c2ccc3cccnc3c2O)ccc1O (stereo not shown) [compound 1973] | – | 54.76 | 53.31 | – | 0.53 | 5.12 | 4.85
6 | CCOc1ccc(C(Nc2ccccn2)c2ccc3ccc(C)nc3c2O)cc1OC (stereo not shown) [compound 1976] | – | 26.91 | – | – | 0.50 | 4.89 | 4.58
7 | COc1ccc(C(Nc2cc(C)ccn2)c2ccc3cccnc3c2O)cc1O (stereo not shown) [compound 1978] | – | 63.53 | 41.95 | – | 1.47 | 4.97 | 5.14
8 | COc1ccc(C(Nc2ccccn2)c2ccc3ccc(C)nc3c2O)cc1C (stereo not shown) [compound 1979] | – | 27.02 | – | – | 0.95 | 5.27 | 5.24
9 | CCOc1cc(C(Nc2cc(C)ccn2)c2ccc3cccnc3c2O)ccc1OC (stereo not shown) [compound 1991] | – | 47.06 | 30.75 | – | 0.79 | 5.15 | 5.04
10 | Cc1ccc2ccc(C(Nc3ccccn3)c3ccc(O)cc3)c(O)c2n1 (stereo not shown) [compound 1997] | – | 29 | – | – | 0.52 | 4.61 | 4.33
